Values quoted from earlier work in patent publication US9186343B2, “Nanoveso™: treatment, biomarkers and diagnostic tests for liver diseases and comorbid diseases” (Nanoveson, LLC, priority 2007, dated 2015).
Where “and” joins values, the source holds several entries; their conditions need not be identical. Identical values can stand only once.

B1: annexin: synexin (a.k.a. annexin VII), a Ca2+ binding protein (protein, UniProt P20073 1-488, looked up)
Annexin A7: MSYPGYPPTGYPPFPGYPPAGQESSFPPSGQYPYPSGFPPMGGGAYPQVPSSGYPGAGGYPAPGGYPAPGGYPGAPQPGGAPSYPGVPPGQGFGVPPGGAGFSGYPQPPSQSYGGGPAQVPLPGGFPGGQMPSQYPGGQPTYPSQINTDSFSSYPVFSPVSLDYSSEPATVTQVTQGTIRPAANFDAIRDAEILRKAMKGFGTDEQAIVDVVANRSNDQRQKIKAAFKTSYGKDLIKDLKSELSGNMEELILALFMPPTYYDAWSLRKAMQGAGTQERVLIEILCTRTNQEIREIVRCYQSEFGRDLEKDIRSDTSGHFERLLVSMCQGNRDENQSINHQMAQEDAQRLYQAGEGRLGTDESCFNMILATRSFPQLRATMEAYSRMANRDLLSSVSREFSGYVESGLKTILQCALNRPAFFAERLYYAMKGAGTDDSTLVRIVVTRSEIDLVQIKQMFAQMYQKTLGTMIAGDTSGDYRRLLLAIVGQ

How the values were obtained:
[1] = tested on: human prostate cancer cells; details: in vitro at micromolar concentrations
chromaffin granules = details: most effective fusogen of 23 compounds
[2] = presence of annexin

| Molecule | human prostate cancer cell growth [1] | minimum concentration as fusogen (chromaffin granules) | increase of the aggregation rate [2] |
| --- | --- | --- | --- |
| CCCCC/C=C\C/C=C\C/C=C\C/C=C\CCCC(=O)O [AA, Arachidonic Acid (n-6 20:4)] | effective stimulator | 2 ug/ml and 6.6 uM | – |
| B1 | – | – | up to 100 fold |
